This is an account of results in US20050215772A1, “Furanone derivatives and methods of making same” (priority 2002, published 2005).

The subject of assay [1] is AHL mediated quorum sensing. The assay is classed as cell-based.
The next assay relates to Staphylococcus aureus. The assay can be described thus: Growth of Staphylococcus aureus. The assay is classed as cell-based. The protocol: The growth of Staphylococcus aureus against furanones was tested in sidearm flasks. One percent of an overnight culture was added to the growth media, Nutrient Broth, containing furanones at the concentrations 1-50 μg/ml. The bacteria were incubated at 37 C and growth was measured at 610 nm.

For another assay, the system named is AI-2 pathway. The assay is described as follows: microbe, parasite or virus in culture. Conditions: Vibrio harveyi, read-out: AI-2 (% of control). The class given is cell-based, V. harveyi.
The format of assay [2] is cell-based, V. vulnificus.
A further assay deals with V. vulnificus. The assay can be described thus: Attachment by V. vulnificus. The assay is classed as cell-based.

SMILES strings stand for the structures.

`C/C=C1\NC(=O)C=C1C`: in assay [1], the AHL result is given as “+ + +”. The “S. aureus (% of control)” value in the assay with Staphylococcus aureus (growth, 50 ug/ml) is reported as “No effect 50 μg/ml”.
Turning to `C[C@@]1(Nc2ccccc2)OC(=O)C=C1N`, the AHL result in assay [1] is “+ + +”. In the assay on AI-2 pathway, the activity at 5 µg/mL amounted to 80%, the activity at 10 µg/mL was 57% and the activity at 50 µg/mL was 26%.
Take `CCCC(Br)C1=CC(=C(Br)Br)N(c2ccccc2)C1=O` (centres unmarked) [drawing 37]: the “reduction in swimming motility” value in assay [2] was 40-50% reduction in swimming motility in V. cholerae and V. vulnificus. Besides, in the assay with V. vulnificus, the reduction in attachment is reported as 30% reduction in attachment by V. vulnificus.
For `CCCCC1=CC(=C(Br)Br)N(CCOC(=O)C(F)(F)F)C1=O`, the AHL result in assay [1] is “+ + +”. In addition, the “S. aureus (% of control)” value with Staphylococcus aureus (growth, 50 ug/ml) is “No effect (50 μg/ml)”.
As to `CC1(O)NC(=O)C=C1c1ccccc1` (centres unmarked), the activity at 100 µg/mL in the assay with AI-2 pathway turned out to be 39%. Besides, the activity at 25 µg/mL in the assay with Staphylococcus aureus (Staphylococcus aureus, growth, 25 μg/ml, read-out: S. aureus (% of control)) stood at 102%.
Consider `CCCCCCCC1=CC(=O)N(c2ccccc2)C1(O)CBr` (centres unmarked), for which the AHL result in assay [1] was “+ + +”.
Turning to `CCCCC1=CC(=C(Br)Br)N(CCOS(=O)(=O)c2ccc(C)cc2)C1=O`, the AHL entry in assay [1] was “+ +”. Moreover, in the assay on Staphylococcus aureus (growth, 50 ug/ml), the “S. aureus (% of control)” value was “No effect (50 μg/ml)”.
With `CCCCC1=CC(=C(Br)Br)N(c2ccccc2)C1=O`, the AHL entry in assay [1] is given as “+ + +”.
With `O=C1C=C(Br)/C(=C/Nc2ccccc2)O1` [drawing 26], the AHL result in assay [1] was “+ + +”. In addition, the activity at 50 µg/mL amounted to 2% in the assay with AI-2 pathway and 104% with Staphylococcus aureus (Staphylococcus aureus, growth, 50 ug/ml, read-out: S. aureus (% of control)).
Regarding `CCCC(Br)C1=CC(=C(Br)Br)N(c2ccccc2)C1=O` (centres unmarked) [drawing 24], in assay [1], the AHL result was “+ + + +”. Also, in the assay with Staphylococcus aureus (growth for 10 hrs, concentration not given), the “S. aureus (% of control)” value was 0% growth at ug/ml for 10 hrs % of control.
Turning to `CCCCC1=C(Br)/C(=C/Nc2ccccc2)OC1=O`, the AHL result in assay [1] is on record as “+ + + +”. Moreover, the activity at 20 µg/mL in the assay with AI-2 pathway was 61%. In the assay with Staphylococcus aureus (growth, 50 ug/ml), the “S. aureus (% of control)” value was “No effect 50 μg/ml”.
As to `O=C1C=C(Br)/C(=C/Nc2ccccc2)O1` [drawing 35], the “reduction in swimming motility” value in assay [2] was 40-50% reduction in swimming motility in V. cholerae and V. vulnificus. The reduction in attachment in the assay on V. vulnificus was 30% reduction in attachment by V. vulnificus.
For the compound `CC1=CC(C)(Nc2ccccc2)OC1=O` (centres unmarked), the AHL result in assay [1] is on record as “+ +”. For the same compound, the activity at 100 µg/mL in the assay on AI-2 pathway amounted to 50%. Also, the “S. aureus (% of control)” value in the assay on Staphylococcus aureus (growth, 50 ug/ml) is “No effect 50 μg/ml”.
